Test results: patent US20060121116A1, “Hydrogel for cell separation and method of separating cells” (priority 2003, published 2006)

Tested on: human peripheral blood leucocytes
Assay: Migration capability of neutrophils: fMLP in soft agar under hydrogel layer
Assay type: cell-based
Details: for Number of Cells in Hydrogel of the Invention: 37° C., 3 hours, 10^7 leucocytes applied; for Number of Cells in Soft Agar: microscopically observed
Method: Soft agar mediums (prepared by dissolving Nacalai Tesque's soft agar powder in a D′MEM (Dulbecco's Modification Eagle's Medium, by GIBCO, containing 10% FCS (Fetal Calf Serum)) having 0.6% of concentration and each containing 0 M, 10^−6 M, 10^−7 M or 10^−8 M of fMLP (N-formyl-methionyl-leucyl-phenylalanine, molecular weight 437.6, chemotactic peptide, produced by Sigma) were prepared at 42° C. Each medium was put into a polystyrene dish (mfd. by SOMILON) having a diameter of 35 mm in an amount of 1 ml (depth of medium, about 1 mm) each, and gelled therein at room temperature. The hydrogel-forming polymer (TGP-5) of the invention obtained in Production Example 7 was sterilized with EOG in the same manner as in Production Example 4. One g of the polymer was dissolved in 9 g of D′MEM medium at 4° C., and this was put on the above-mentioned soft agar gel in an amount of 0.5 ml (depth of the polymer solution, about 0.5 mm) each, and gelled at room temperature. The sol-gel transition temperature of the hydrogel was 18° C. On the hydrogel layer of the invention, a tissue culture insert (mfd. by NUNC) with a filter having a pore size of 8.0 μm was set, and 0.5 ml of a cell suspension containing 10^7 human peripheral blood leucocytes was put into the insert and set in an incubator at 37° C. This was statically set therein at 37° C. for 3 hours, and then the dish was taken out of the incubator. The dish was cooled on ice, the tissue culture insert was removed, and the hydrogel of the invention was converted into a sol state. The hydrogel of the invention that was liquid with cooling with ice was collected, diluted with physiological saline and centrifuged (3000 rpm, 5 minutes). The precipitated cell were re-suspended in 20 μl of physiological saline, and the number of the cell was counted to thereby determine the number of the neutrophils having moved into the hydrogel of the invention. After the hydrogel of the invention was removed, the number of the cell having moved into the soft agar was microscopically observed, and the result is shown in Table 1.

[1] = fMLP concentration in soft agar 10^−6 M
[2] = fMLP concentration in soft agar 10^−7 M
[3] = fMLP concentration in soft agar 10^−8 M

Question: Which results are given for `CSCC[C@H](NC=O)C(=O)N[C@@H](CC(C)C)C(=O)N[C@@H](Cc1ccccc1)C(=O)O` [fMLP, N-formyl-methionyl-leucyl-phenylalanine]?
Answer: Number of Cells in Hydrogel of the Invention [1]: 300; Number of Cells in Soft Agar [1]: numerous; Number of Cells in Hydrogel of the Invention [2]: 17,600; Number of Cells in Soft Agar [2]: many; Number of Cells in Hydrogel of the Invention [3]: 4,740; Number of Cells in Soft Agar [3]: a few
